The values that follow come from ChEMBL document CHEMBL2176889, “Design, synthesis, and pharmacological evaluation of monocyclic pyrimidinones as novel inhibitors of PDE5” (J Med Chem, 2012).

The source made the active and inactive calls. The calls are words filed in the database; no cut-off is given here.

For series [1], the target named is High affinity 3',5'-cyclic-AMP phosphodiesterase 7A (Homo sapiens, UniProt Q13946).
The subject of series [2] is Rattus norvegicus. As to the kind of experiment: Increase in intracavernous pressure/blood pressure in Sprague-Dawley rat model of erection at 10 mg/kg, po measured 30 mins post dose. On the set-up: dose 10 mg/kg. The series is classed as functional, organism-based.
The nature of series [3]: Inhibition of dog adrenal gland PDE2 by [3H]cGMP based tritium scintillation proximity assay. The series is classed as tissue-based, Canis lupus familiaris.
Series [4] can be described thus: Oral bioavailability in Sprague-Dawley rat at 10 mg/kg by LC-MS/MS method. To be noted: in vivo. It is filed as ADME, organism-based.
The nature of series [5]: Cmax in Sprague-Dawley rat at 10 mg/kg, po by LC-MS/MS method. On the set-up: dose 10 mg/kg, route oral. To be noted: in vivo. The series is classed as ADME, organism-based.
A short description of series [6]: AUC (0 to 10 hrs) in Sprague-Dawley rat at 5 mg/kg, iv by LC-MS/MS method. It is filed as ADME, organism-based. On the set-up: time < 10 hr, dose 5 mg/kg, route intravenous. To be noted: plasma.
A short description of series [7]: Half life in Sprague-Dawley rat at 5 mg/kg, iv by LC-MS/MS method. The series is classed as ADME, organism-based. On the set-up: dose 5 mg/kg, route intravenous. The settings on record: in vivo.
Series [8] is described as follows: Volume of distribution in Sprague-Dawley rat at 5 mg/kg, iv by LC-MS/MS method. The series is classed as ADME, organism-based. On the set-up: dose 5 mg/kg, route intravenous. To be noted: in vivo.
The nature of series [9]: MRT (0 to 10 hrs) in Sprague-Dawley rat at 10 mg/kg, po by LC-MS/MS method. Also on record: dose 10 mg/kg, route oral. The series is classed as ADME, organism-based. To be noted: in vivo.
Series [10] in a line: Clearance in Sprague-Dawley rat at 5 mg/kg, iv by LC-MS/MS method. The series is classed as ADME, organism-based. On the set-up: dose 5 mg/kg, route intravenous. The settings on record: in vivo.
The nature of series [11]: MRT (0 to 10 hrs) in Sprague-Dawley rat at 5 mg/kg, iv by LC-MS/MS method. The series is classed as ADME, organism-based. Also on record: dose 5 mg/kg, route intravenous. To be noted: in vivo.
Series [12] is described as follows: Tmax in Sprague-Dawley rat at 10 mg/kg, po by LC-MS/MS method. To be noted: in vivo. On the set-up: dose 10 mg/kg, route oral. The series is classed as ADME, organism-based.
A short description of series [13]: Half life in Sprague-Dawley rat at 10 mg/kg, po by LC-MS/MS method. The series is classed as ADME, organism-based. To be noted: in vivo. Also on record: dose 10 mg/kg, route oral.
Series [14] can be described thus: AUC (0 to 10 hrs) in Sprague-Dawley rat at 10 mg/kg, po by LC-MS/MS method. Also on record: time < 10 hr, dose 10 mg/kg, route oral. To be noted: plasma. The series is classed as ADME, organism-based.

Sequence of High affinity 3',5'-cyclic-AMP phosphodiesterase 7A (Q13946 whole entry): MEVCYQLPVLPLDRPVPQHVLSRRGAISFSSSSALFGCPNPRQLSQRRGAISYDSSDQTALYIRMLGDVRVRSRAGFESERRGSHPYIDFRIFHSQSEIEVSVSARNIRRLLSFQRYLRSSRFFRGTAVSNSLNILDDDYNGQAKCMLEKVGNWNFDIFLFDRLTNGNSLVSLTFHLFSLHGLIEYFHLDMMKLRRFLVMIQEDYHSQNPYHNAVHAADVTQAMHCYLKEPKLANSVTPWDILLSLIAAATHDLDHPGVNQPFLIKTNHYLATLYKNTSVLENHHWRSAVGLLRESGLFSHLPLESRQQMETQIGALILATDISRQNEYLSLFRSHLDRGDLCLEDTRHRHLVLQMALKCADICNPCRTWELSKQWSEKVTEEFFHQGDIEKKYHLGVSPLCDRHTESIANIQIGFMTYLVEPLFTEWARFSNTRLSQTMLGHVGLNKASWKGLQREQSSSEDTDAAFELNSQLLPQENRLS

For orientation: IC50 means the concentration needed to halve the response being measured. For orientation: bioavailability means dose-corrected exposure relative to a reference, in per cent. A low value points to little systemic uptake. Regarding `CCCc1nn(C)c2c(=O)[nH]c(-c3cc(S(=O)(=O)N4CCN(C)CC4)ccc3OCC)nc12`, the half-inhibitory concentration (IC50) is 4.69 µM in series [1] and over 10 µM in [3]. Further, the result in series [2] was Active. This compound gave a bioavailability in [4] of 23%.
The term Cmax denotes the highest concentration seen after dosing. As a reminder, the AUC(0-t) is the area under the concentration-time curve up to a stated or last time point. Low readings indicate low exposure, high ones high exposure. What is called half-life is the time in which the quantity being followed falls by half. What is called Vd is a proportionality between amount in the body and measured concentration, not a real space. Low readings indicate confinement near the circulation, high ones extensive tissue distribution. In general, MRT last refers to a mean duration of stay, worked out from the concentration-time curve. A word on the clearance: it is a measure of how efficiently the substance is removed, as volume per time. Low values mean inefficient removal, high ones efficient removal. The Tmax is the time at which the peak concentration occurs. Compound `CCCOc1ccc(S(=O)(=O)N2CCN(C)CC2)cc1-c1nc(CC)c(CC)c(=O)[nH]1` had a maximum concentration (Cmax) in series [5] of 0.468 µg/mL. Also, the AUC(0-t) at 10 h in series [6] is 4.47 µg·h/mL; in series [14], 0.895 µg·h/mL. Moreover, the result in [2] was Active. For the same compound, the half-life is 1.29 h in series [7] and 3.94 h in [13]. In [8], this compound yielded a distribution volume (Vd) of 2.07 L/kg. For the same compound, the MRT last came to 3.09 h in series [9] and 0.81 h in [11]. For the same compound, in [10], the clearance was 1.17 L/h/kg. In addition, in series [4], the bioavailability worked out at 10%. For the same compound, in series [12], the time to peak (Tmax) was found to be 0.25 h.
